Source: patent publication US20250288681A1, “SOLID COMPOSITIONS COMPRISING A GLUCOKINASE ACTIVATOR AND METHODS OF MAKING AND USING THE SAME” (vTv Therapeutics LLC, priority 2013, published 2025)

Assay: stability of solid form (statement only)
Type: physicochemical
Conditions: qualitative statement, no data

Row | Structure (SMILES) | stability
1 | CCCO[C@H]1CC[C@H](N(C(=O)Nc2ncc(SCC(=O)O)s2)C2CCCCC2)CC1 [UD1-FA, {2-[3-cyclohexyl-3-(trans-4-propoxy-cyclohexyl)-ureido]-thiazol-5-ylsulfanyl}-acetic acid] | greater stability relative to some of its pharmaceutically acceptable salts
2 | CCCO[C@H]1CC[C@H](N(C(=O)Nc2ncc(SCC(=O)O)s2)C2CCCCC2)CC1 [Form A, {2-[3-cyclohexyl-3-(trans-4-propoxy-cyclohexyl)-ureido]-thiazol-5-ylsulfanyl}-acetic acid] | particularly stable
